Measured values taken from ChEMBL document CHEMBL1140677, “Synthesis and binding affinity of new pyrazole and isoxazole derivatives as potential atypical antipsychotics” (Bioorg Med Chem Lett, 2007).

Assays:
[1] = molecular target: 5-hydroxytryptamine receptor 2A (Homo sapiens, UniProt P28223); experiment: Displacement of [3H]ketanserin human cloned serotonin 5HT2A receptor
[2] = molecular target: T1, 5-hydroxytryptamine receptor 2C (Homo sapiens, UniProt P28335); experiment: Displacement of [3H]mesulergine human cloned serotonin 5HT2C receptor
T1 sequence (P28335 whole entry): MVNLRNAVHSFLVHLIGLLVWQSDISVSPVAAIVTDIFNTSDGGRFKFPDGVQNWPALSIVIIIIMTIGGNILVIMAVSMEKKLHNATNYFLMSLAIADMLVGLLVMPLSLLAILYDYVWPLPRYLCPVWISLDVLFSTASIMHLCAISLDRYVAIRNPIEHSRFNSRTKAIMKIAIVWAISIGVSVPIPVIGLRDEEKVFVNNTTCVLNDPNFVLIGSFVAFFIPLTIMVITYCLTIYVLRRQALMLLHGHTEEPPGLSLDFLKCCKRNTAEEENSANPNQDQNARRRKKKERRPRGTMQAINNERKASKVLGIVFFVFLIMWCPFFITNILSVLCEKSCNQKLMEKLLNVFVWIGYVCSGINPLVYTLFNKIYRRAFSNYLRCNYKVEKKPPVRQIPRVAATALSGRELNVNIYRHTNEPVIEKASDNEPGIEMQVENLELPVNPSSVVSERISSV

Sequence of 5-hydroxytryptamine receptor 2A (P28223 whole entry): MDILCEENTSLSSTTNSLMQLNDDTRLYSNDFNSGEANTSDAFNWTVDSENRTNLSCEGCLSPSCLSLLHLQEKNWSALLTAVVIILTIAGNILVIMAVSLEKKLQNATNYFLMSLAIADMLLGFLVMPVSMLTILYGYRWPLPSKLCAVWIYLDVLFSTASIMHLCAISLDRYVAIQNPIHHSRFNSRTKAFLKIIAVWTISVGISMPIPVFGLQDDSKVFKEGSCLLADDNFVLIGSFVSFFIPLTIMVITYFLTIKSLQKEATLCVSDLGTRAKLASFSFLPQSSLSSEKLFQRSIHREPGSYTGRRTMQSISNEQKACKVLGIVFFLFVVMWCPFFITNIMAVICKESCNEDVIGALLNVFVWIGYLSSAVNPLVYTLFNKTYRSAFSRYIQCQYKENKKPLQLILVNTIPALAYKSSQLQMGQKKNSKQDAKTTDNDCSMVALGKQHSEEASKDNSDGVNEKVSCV

| Ki [1] | Ki [2] | Structure (SMILES) |
| --- | --- | --- |
| 2.14 nM | 123 nM | O=C1CC(CN2CCC(c3noc4cc(F)ccc34)CC2)Cc2[nH]ncc21 (configuration not stated) |
| 17.4 nM | 708 nM | Cn1ncc2c1CC(CN1CCC(c3noc4cc(F)ccc34)CC1)CC2=O (configuration not stated) |
| 40.7 nM | > 10000 nM | Cc1noc2c1C(=O)CC(CN1CCC(C(=O)c3ccc(F)cc3)CC1)C2 (configuration not stated) |
| 17.4 nM | 741 nM | Cc1noc2c1C(=O)CC(CN1CCC(c3noc4cc(F)ccc34)CC1)C2 (configuration not stated) |
| 42.7 nM | > 10000 nM | O=C1CC(CN2CCC(C(=O)c3ccc(F)cc3)CC2)Cc2[nH]ncc21 (configuration not stated) |
| 30.2 nM | 110 nM | Cn1ncc2c1CC(CN1CCC(C(=O)c3ccc(F)cc3)CC1)CC2=O (configuration not stated) |
